Drawing on patent US8557816B2, “Aurora kinase modulators and method of use” (Amgen Inc., priority 2007, dated 2013), this text covers IC50 for 32 molecules.

One assay addresses T1, AuroraA-TPX2 (Homo sapiens, UniProt O14965).
T1 construct: 20 μL of AuroraA-TPX2 KD GST for a final volume of about 41 μL; GST
T1 sequence (O14965 133-383 limits assumed): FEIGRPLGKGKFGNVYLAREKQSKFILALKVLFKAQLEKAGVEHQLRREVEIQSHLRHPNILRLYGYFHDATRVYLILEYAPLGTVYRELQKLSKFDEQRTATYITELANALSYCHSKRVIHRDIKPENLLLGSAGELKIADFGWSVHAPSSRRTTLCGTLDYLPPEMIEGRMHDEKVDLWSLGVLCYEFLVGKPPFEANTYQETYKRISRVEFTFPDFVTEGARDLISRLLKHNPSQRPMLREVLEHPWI
T1 sequence (Q9ULW0 1-43 partner limits assumed): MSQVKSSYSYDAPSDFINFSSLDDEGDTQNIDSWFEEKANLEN
Briefly: AuroraA-TPX2 Homogeneous Time Resolved Fluorescent (HTRF) kinase assay. Conditions: average; read-out: AurA_IC50_IP (uM Avg). In kind it is biochemical. A digest of the protocol:
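HTRF read-out (Eu 615 nm to APC 655 nm) of phosphorylated biotin-PLK, detected with 0.02 nM europium anti-phosphoPLK antibody and 0.0005 mg/mL SA-APC after overnight equilibration.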
(In TR-FRET formats the signal depends on donor and acceptor labels being close together.)

A further assay has as its target T2, AuroraB (Homo sapiens, UniProt Q96GD4).
T2 construct: 20 μL of AuroraB FL H is for a final volume of 41 μL; His
As to the kind of experiment: AuroraB Homogeneous Time Resolved Fluorescent (HTRF) kinase assay. In kind it is biochemical. The following applies: average; read-out: AurB_IC50_IP (uM Avg). An outline of the steps:
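Read-out is time-resolved FRET between europium anti-phospho-H3 antibody and streptavidin-APC, added in EDTA buffer to stop the reaction and equilibrated about 60 min (ex 320, em 615 and 655 nm). Preceding reaction: ~90 min, full-length enzyme, ATP, 0.1 μM biotin-Histone H3 substrate, Mg/Mn HEPES buffer pH 7.5.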

Where only a bound is given, the exact number is not on record here.

T2 sequence (Q96GD4 whole entry): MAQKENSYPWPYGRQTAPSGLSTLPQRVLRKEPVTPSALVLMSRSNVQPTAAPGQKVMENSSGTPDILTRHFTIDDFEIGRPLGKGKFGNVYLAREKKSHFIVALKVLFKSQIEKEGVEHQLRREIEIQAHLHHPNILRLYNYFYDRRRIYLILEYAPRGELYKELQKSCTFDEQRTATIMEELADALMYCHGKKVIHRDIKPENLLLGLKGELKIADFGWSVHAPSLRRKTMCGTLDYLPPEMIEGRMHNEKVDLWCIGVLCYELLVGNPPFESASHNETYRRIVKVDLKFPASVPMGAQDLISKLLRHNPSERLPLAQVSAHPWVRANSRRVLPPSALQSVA

Turning to `CCOc1nc(-c2nnc(Nc3ccc(Oc4ccnc5cc(OC)cnc45)cc3)c3ccccc23)cs1` [compound 175, 4-(2-(ethyloxy)-1,3-thiazol-4-yl)-N-(4-((7-(methyloxy)-1,5-naphthyridin-4-yl)oxy)phenyl)-1-phthalazinamine], the IC50 at AuroraA-TPX2 was 0.013 µM; on AuroraB it was 0.003 µM.

For `COc1cnc2c(Oc3ccc(Nc4nnc(-c5ccc(Cl)cc5)c5ccccc45)cc3F)ccnc2c1` [compound 284, 4-(4-chlorophenyl)-N-(3-fluoro-4-((7-(methyloxy)-1,5-naphthyridin-4-yl)oxy)phenyl)-1-phthalazinamine], the IC50 at AuroraA-TPX2 is 0.019 µM; on AuroraB, 0.007 µM.

For `COc1cnc2c(Oc3ccc(Nc4nnc(-c5cccc(N(C)C)c5)c5ccccc45)cc3)ccnc2c1` [compound 258, 4-(3-(dimethylamino)phenyl)-N-(4-((7-(methyloxy)-1,5-naphthyridin-4-yl)oxy)phenyl)-1-phthalazinamine], the IC50 came to 0.005 µM at AuroraA-TPX2 and 0.002 µM on AuroraB.

As for `Cc1ccc(-c2nnc(Nc3ccc(Oc4ccnc5cc(C#N)ccc45)cc3)c3ccccc23)cc1` [compound 88, 4-((4-((4-(4-methylphenyl)-1-phthalazinyl)amino)phenyl)oxy)-7-quinolinecarbonitrile], the IC50 was 0.006 µM at AuroraA-TPX2 and 0.003 µM on AuroraB.

`COc1ccc2c(Sc3ccc(Nc4nnc(-c5ccccc5)c5ccccc45)cc3)ccnc2c1` [compound 331, N-(4-((7-(methyloxy)-4-quinolinyl)thio)phenyl)-4-phenyl-1-phthalazinamine]: the values for the IC50 on AuroraA-TPX2 and at AuroraB were 0.192 µM and 0.155 µM, respectively.

Regarding `CCc1cc(-c2ccccc2)nnc1Nc1ccc(Oc2ccnc3cc(C#N)ccc23)cc1` [compound 149, 4-((4-((4-ethyl-6-phenyl-3-pyridazinyl)amino)phenyl)oxy)-7-quinolinecarbonitrile], the IC50 came to 0.146 µM on AuroraA-TPX2 and 0.014 µM on AuroraB.

Regarding `CCCc1cc(-c2ccccc2)nnc1Nc1ccc(Oc2ccnc3cc(OC)cnc23)cc1` [compound 156, N-(4-((7-(methyloxy)-1,5-naphthyridin-4-yl)oxy)phenyl)-6-phenyl-4-propyl-3-pyridazinamine], the IC50 is 0.047 µM at AuroraA-TPX2 and 0.005 µM at AuroraB.

As for `FC(F)(F)Oc1ccc2nccc(Sc3ccc(Nc4nnc(-c5ccccc5)c5ccccc45)cc3)c2c1` [compound 571], the IC50 at AuroraA-TPX2 and on AuroraB was more than 25 µM each time.

Consider `COc1ccc2c(C(=O)c3ccc(Nc4nnc(-c5ccc(Cl)cc5)c5ccccc45)cc3)ccnc2c1` [compound 615], for which the IC50 at AuroraA-TPX2 is 0.3 µM; at AuroraB, 0.039 µM.

On to `Cc1ccc(-c2ccc3c(Oc4ccc(Nc5nnc(-c6ccccc6)c6ccccc56)cc4)ccnc3c2)o1` [compound 344, N-(4-(7-(5-methylfuran-2-yl)quinolin-4-yloxy)phenyl)-4-phenylphthalazin-1-amine], for which the IC50 on AuroraA-TPX2 worked out at 0.057 µM; at AuroraB it was 0.022 µM.

Regarding `Clc1cccc(-c2nnc(Nc3ccc(Sc4ccnc5ccsc45)cc3)c3ccccc23)c1` [compound 518], the figures for the IC50 at AuroraA-TPX2 and at AuroraB were 0.218 µM and 0.01 µM, respectively.

Take `COc1cnc2c(Oc3ccc(Nc4nnc(-c5cccc(C)n5)c5ccccc45)cc3)ccnc2c1` [compound 111, N-(4-((7-(methyloxy)-1,5-naphthyridin-4-yl)oxy)phenyl)-4-(6-methyl-2-pyridinyl)-1-phthalazinamine]: the IC50 at AuroraA-TPX2 was 0.04 µM; on AuroraB it was 0.005 µM.

With `COc1cnc2c([S+]([O-])c3ccc(Nc4nnc(-c5ccc(F)cc5)c5ccccc45)cc3)ccnc2c1` (stereo not shown) [Example 410, 4-(4-fluorophenyl)-N-(4-(7-methoxy-1,5-naphthyridin-4-ylsulfinyl)phenyl)phthalazin-1-amine], the IC50 on AuroraA-TPX2 stood at 0.532 µM; on AuroraB it was 0.645 µM.

On to `COc1cnc2c(Oc3cnc(Nc4nnc(-c5ccccc5)c5ccccc45)nc3)ccnc2c1` [compound 84, N-(5-((7-(methyloxy)-1,5-naphthyridin-4-yl)oxy)-2-pyrimidinyl)-4-phenyl-1-phthalazinamine], for which the IC50 was found to be 0.16 µM at AuroraA-TPX2 and 0.002 µM on AuroraB.

For the molecule `COc1cc2ncnc(Oc3ccc(Nc4nnc(-c5cc(C)cs5)c5ccccc45)cc3)c2cc1OC` [compound 153, N-(4-((6,7-bis(methyloxy)-4-quinazolinyl)oxy)phenyl)-4-(4-methyl-2-thienyl)-1-phthalazinamine], the IC50 was 0.009 µM on AuroraA-TPX2 and 0.012 µM at AuroraB.

As for `COc1cnc2c(Sc3ccc(Nc4nnc(NCCc5ccccn5)c5ccccc45)cc3)ccnc2c1` [compound 537], the IC50 on AuroraA-TPX2 was found to be 0.198 µM; at AuroraB, 0.111 µM.

Regarding `COc1cnc2c(Sc3ccc(Nc4nnc(-c5ccc6c(c5)OCO6)c5ccccc45)cc3)ccnc2c1` [compound 530], the IC50 at AuroraA-TPX2 and on AuroraB was 0.014 µM in each case.

As to `c1ccc(-c2nnc(Nc3ccc(Oc4ccnc5cc(-c6ccoc6)ccc45)cc3)c3ccccc23)cc1` [compound 343, N-(4-(7-(furan-3-yl)quinolin-4-yloxy)phenyl)-4-phenylphthalazin-1-amine], the IC50 is 0.024 µM at AuroraA-TPX2 and 0.008 µM at AuroraB.

In the case of `c1ccc(-c2nnc(Nc3ccc(Oc4ncnc5[nH]ccc45)cc3)c3ccccc23)cc1` [compound 273, N-(4-(7H-pyrrolo[2,3-d]pyrimidin-4-yloxy)phenyl)-4-phenylphthalazin-1-amine], the IC50 is 1.66 µM on AuroraA-TPX2 and 0.039 µM at AuroraB.

`COc1cnc2c(Sc3ccc(Nc4nnc(-c5ccc(Cl)cc5)c5ccccc45)cc3)ccnc2c1` [compound 232, 4-(4-chlorophenyl)-N-(4-((7-(methyloxy)-1,5-naphthyridin-4-yl)thio)phenyl)-1-phthalazinamine]: the IC50 at AuroraA-TPX2 turned out to be 0.036 µM; at AuroraB it was 0.015 µM.

Consider `CCc1cc(-c2ccc(C)cc2)nnc1Nc1ccc(Sc2ccnc3cccnc23)cc1` [compound 358, N-(4-(1,5-naphthyridin-4-ylthio)phenyl)-4-ethyl-6-p-tolylpyridazin-3-amine], for which the IC50 amounted to 0.049 µM at AuroraA-TPX2 and 0.006 µM at AuroraB.

In the case of `c1cnc2c(Sc3ccc(Nc4nnc(-c5ccc6c(c5)CCO6)c5ccccc45)cc3)ccnc2c1` [compound 445], the IC50 was found to be 0.03 µM at AuroraA-TPX2 and 0.013 µM on AuroraB.

For the molecule `COc1cnc2c(Sc3ccc(Nc4nnc(-c5ccc(OC)nc5)c5ccccc45)cc3)ccnc2c1` [compound 583], the figures for the IC50 on AuroraA-TPX2 and at AuroraB were 0.028 µM and 0.008 µM, respectively.

On to `COc1cc(F)cc2nccc(Oc3ccc(Nc4nnc(-c5ccc(Cl)cc5)c5ccccc45)cc3)c12` [compound 437], for which the results for the IC50 at AuroraA-TPX2 and at AuroraB were 0.042 µM and 0.035 µM, respectively.

On to `COc1ccc2nccc(Oc3ccc(Nc4nnc(-c5ccc(Cl)cc5)c5ccccc45)cc3)c2c1` [compound 239, 4-(4-chlorophenyl)-N-(4-((6-(methyloxy)-4-quinolinyl)oxy)phenyl)-1-phthalazinamine], for which the values for the IC50 on AuroraA-TPX2 and at AuroraB were 0.12 µM and 0.008 µM, respectively.

For the molecule `COc1cnc2c(Oc3ccc(Nc4nnc(-c5ccccc5)cc4C)cc3)ccnc2c1` [compound 107, 4-methyl-N-(4-((7-(methyloxy)-1,5-naphthyridin-4-yl)oxy)phenyl)-6-phenyl-3-pyridazinamine], the IC50 on AuroraA-TPX2 worked out at 0.018 µM; at AuroraB, 0.005 µM.

With `CCOc1nnc(Nc2ccc(Sc3ccnc4cc(OC)cnc34)cc2)c2ccccc12` [compound 512], the IC50 is 0.501 µM at AuroraA-TPX2 and 0.12 µM at AuroraB.

Consider `COc1cnc2c(Oc3ccc(Nc4nnc(N5CCN6CCCC6C5)c5ccccc45)cc3)ccnc2c1` (stereo not shown) [compound 92, 4-(hexahydropyrrolo[1,2-a]pyrazin-2(1H)-yl)-N-(4-((7-(methyloxy)-1,5-naphthyridin-4-yl)oxy)phenyl)-1-phthalazinamine], for which the IC50 at AuroraA-TPX2 came to 0.007 µM; on AuroraB it was 0.003 µM.

With `Cc1csc(-c2nnc(Nc3ccc(Oc4ccnc5cc(C#N)ccc45)cc3)c3ccccc23)c1` [compound 170, 4-((4-((4-(4-methyl-2-thienyl)-1-phthalazinyl)amino)phenyl)oxy)-7-quinolinecarbonitrile], the IC50 at AuroraA-TPX2 worked out at 0.016 µM; on AuroraB it was 0.009 µM.

Regarding `COc1cc2nccc(Oc3ccc(Nc4nnc(-c5ccc(C)c(C)c5)c5ccccc45)cc3)c2cc1OC` [compound 74, N-(4-((6,7-bis(methyloxy)-4-quinolinyl)oxy)phenyl)-4-(3,4-dimethylphenyl)-1-phthalazinamine], the IC50 on AuroraA-TPX2 is 0.014 µM; on AuroraB, 0.032 µM.

In the case of `COc1cnc2c(Oc3ccc(Nc4nnc(-c5ccc6c(c5)OCO6)c5ccccc45)cc3)ccnc2c1` [compound 306, 4-(1,3-benzodioxol-5-yl)-N-(4-((7-(methyloxy)-1,5-naphthyridin-4-yl)oxy)phenyl)-1-phthalazinamine], the IC50 at AuroraA-TPX2 is 0.011 µM; on AuroraB, 0.03 µM.

For `Cc1csc(-c2nnc(Nc3ccc(Sc4ccnc5ccsc45)cc3)c3ccccc23)c1` [compound 366, 4-(4-methylthiophen-2-yl)-N-(4-(thieno[3,2-b]pyridin-7-ylthio)phenyl)phthalazin-1-amine], the IC50 on AuroraA-TPX2 worked out at 0.037 µM; on AuroraB, 0.051 µM.
